Laboratory results taken from patent publication US11903387B2 (priority 2016, dated 2024).
Several values for one entry are separate records, joined by “and”; a condition that tells them apart may be missing. Identical values can stand only once. Like-named read-outs stand apart in the source and are kept apart here.

Assays:
[1] = tested on: Phytophthora infestans; assay: whole plant or invertebrate; type: in vivo; conditions: for pest or weed control at 2 ppm / pest or weed control at 10 ppm / pest or weed control at 50 ppm / pest or weed control at 0.4 ppm / pest or weed control at 0.06 ppm / pest or weed control at 0.3 ppm: Phytophthora infestans, in Solanum lycopersicum; for Test 1 Measured: component (b) alone; for Test 1 preventive value, Measured: applied alone
[2] = tested on: Pseudoperonospora cubensis; assay: Test 2: control effect against cucumber downy mildew; type: in vivo
[3] = Pseudoperonospora cubensis, applied alone, 2 ppm, read-out: Test 2 preventive value, Measured
[4] = Pseudoperonospora cubensis, applied alone, 10 ppm, read-out: Test 2 preventive value, Measured
[5] = read-out: Test 1 Measured preventive value, component (b) alone, 2 ppm
[6] = read-out: Test 1 Measured preventive value, component (b) alone, 10 ppm
[7] = read-out: Test 1 Measured, component (b) alone, 2 ppm
[8] = read-out: Test 1 Measured, component (b) alone, 10 ppm
[9] = Pseudoperonospora cubensis, component (b) alone, 2 ppm, read-out: Test 2 Measured
[10] = Pseudoperonospora cubensis, component (b) alone, 10 ppm, read-out: Test 2 Measured

## C[C@@]1(c2ccc(Oc3ccccc3)cc2)OC(=O)N(Nc2ccccc2)C1=O (racemic) [Famoxadone]
[1]; read-out: Test 1 preventive value, Measured, applied alone, 2 ppm
  pest or weed control at 2 ppm: 0%
[1]; read-out: Test 1 preventive value, Measured, applied alone, 10 ppm
  pest or weed control at 10 ppm: 0%
[1]; read-out: Test 1 preventive value, Measured, applied alone, 50 ppm
  pest or weed control at 50 ppm: 10%
[2]; [3]
  pest or weed control at 2 ppm: 0%
[2]; [4]
  pest or weed control at 10 ppm: 0%
[2]; Pseudoperonospora cubensis, applied alone, 50 ppm, read-out: Test 2 preventive value, Measured
  pest or weed control at 50 ppm: 0%

## CCCCCCCCc1c(CC)nc2ncnn2c1N [Ametoctradin]
[1]; 0.4 ppm
  Test 1 Measured: 0.0
[1]; 2 ppm
  Test 1 Measured: 18.3
[1]; 10 ppm
  Test 1 Measured: 95.7
[2]; component (b) alone, 0.4 ppm
  Test 2 Measured: 77.5
[2]; component (b) alone, 2 ppm
  Test 2 Measured: 95
[2]; component (b) alone, 10 ppm
  Test 2 Measured: 98.8

## Cc1c(Br)c2ccc(F)cc2n1S(=O)(=O)c1ncn(S(=O)(=O)N(C)C)n1 [Amisulbrom]
[1]; 0.4 ppm
  Test 1 Measured: 60
[1]; 2 ppm
  Test 1 Measured: 80
[1]; 10 ppm
  Test 1 Measured: 97
[2]; component (b) alone, 0.4 ppm
  Test 2 Measured: 27.5
[2]; component (b) alone, 2 ppm
  Test 2 Measured: 98.8
[2]; component (b) alone, 10 ppm
  Test 2 Measured: 100

## CO/C=C(/C(=O)OC)c1ccccc1Oc1cc(Oc2ccccc2C#N)ncn1 [Azoxystrobin]
[1]; 0.4 ppm
  Test 1 preventive value, Measured: 5.0
[1]; 2 ppm
  Test 1 preventive value, Measured: 66.7
[1]; 10 ppm
  Test 1 preventive value, Measured: 96.2
[2]; applied alone, 0.4 ppm
  Test 2 preventive value, Measured: 0
[2]; applied alone, 2 ppm
  Test 2 preventive value, Measured: 0
[2]; applied alone, 10 ppm
  Test 2 preventive value, Measured: 0

## O=C1C2CC=CCC2C(=O)N1SC(Cl)(Cl)Cl (stereo not drawn) [Captan]
[1]; [5]
  pest or weed control at 2 ppm: 5%
[1]; [6]
  pest or weed control at 10 ppm: 71.7%
[1]; read-out: Test 1 Measured preventive value, component (b) alone, 50 ppm
  pest or weed control at 50 ppm: 93.8%
[1]; [7]
  pest or weed control at 2 ppm: 10%
[1]; [8]
  pest or weed control at 10 ppm: 64.5%
[1]; read-out: Test 1 Measured, component (b) alone, 50 ppm
  pest or weed control at 50 ppm: 90%
[2]; [9]
  pest or weed control at 2 ppm: 90.1%
[2]; [10]
  pest or weed control at 10 ppm: 99%
[2]; Pseudoperonospora cubensis, component (b) alone, 50 ppm, read-out: Test 2 Measured
  pest or weed control at 50 ppm: 99%
[2]; component (b) alone, 2 ppm
  Test 2 Measured preventive value: 96 and 100
[2]; component (b) alone, 10 ppm
  Test 2 Measured preventive value: 99.3
[2]; component (b) alone, 50 ppm
  Test 2 Measured preventive value: 100 and 96

## N#Cc1c(Cl)c(Cl)c(Cl)c(C#N)c1Cl [Chlorothalonil]
[1]; read-out: Test 1 Measured preventive value, component (b) alone, 0.4 ppm
  pest or weed control at 0.4 ppm: 0%
[1]; [5]
  pest or weed control at 2 ppm: 53.3%
[1]; [6]
  pest or weed control at 10 ppm: 100%
[1]; read-out: Test 1 Measured, component (b) alone, 0.4 ppm
  pest or weed control at 0.4 ppm: 0%
[1]; [7]
  pest or weed control at 2 ppm: 62.1%
[1]; [8]
  pest or weed control at 10 ppm: 100%
[2]; Pseudoperonospora cubensis, applied alone, 0.4 ppm, read-out: Test 2 preventive value, Measured
  pest or weed control at 0.4 ppm: 41.8%
[2]; [3]
  pest or weed control at 2 ppm: 100%
[2]; [4]
  pest or weed control at 10 ppm: 100%
[2]; Pseudoperonospora cubensis, component (b) alone, 0.4 ppm, read-out: Test 2 Measured
  pest or weed control at 0.4 ppm: 0%
[2]; [9]
  pest or weed control at 2 ppm: 80.5%
[2]; [10]
  pest or weed control at 10 ppm: 100%

## Cc1cc(C(F)(F)F)nn1CC(=O)N1CCC(c2nc(C3OCc4cccc(OS(C)(=O)=O)c4CO3)cs2)CC1 (stereo not drawn) [Compound 1-6, 4-[4-(6-methylsulfonyloxy-1,5-dihydro-3H-2,4-benzodioxepin-3-yl)-2-thiazolyl]-1-[2-[5-methyl-3-(trifluoromethyl)-1H-pyrazol-1-yl]acetyl]piperidine]
[1]; read-out: Test 1 Measured preventive value, Compound 1-6 alone 0.06 ppm, average of three repeats
  pest or weed control at 0.06 ppm: 25%
[1]; read-out: Test 1 Measured preventive value, Compound 1-6 alone 0.3 ppm, average of three repeats
  pest or weed control at 0.3 ppm: 99.5%
[1]; read-out: Test 1 Measured preventive value, Compound alone, 0.3 ppm
  pest or weed control at 0.3 ppm: 98.3%
[1]; read-out: Test 1 Measured, Compound alone 0.3 ppm
  pest or weed control at 0.3 ppm: 98%
[1]; read-out: Test 1 preventive value, Measured, applied alone, 0.06 ppm
  pest or weed control at 0.06 ppm: 68.3%
[1]; read-out: Test 1 preventive value, Measured, applied alone, 0.3 ppm
  pest or weed control at 0.3 ppm: 97.7%
[2]; Compound 1-6 alone 0.06 ppm, average of three repeats
  Test 2 Measured preventive value: 5
[2]; Compound 1-6 alone 0.3 ppm, average of three repeats
  Test 2 Measured preventive value: 93.8
[2]; Compound alone, 0.3 ppm
  Test 2 Measured preventive value: 69.58 and 96.3
[2]; Pseudoperonospora cubensis, Compound alone 0.3 ppm, read-out: Test 2 Measured
  pest or weed control at 0.3 ppm: 98.5%
[2]; Pseudoperonospora cubensis, applied alone, 0.06 ppm, read-out: Test 2 preventive value, Measured
  pest or weed control at 0.06 ppm: 40%
[2]; Pseudoperonospora cubensis, applied alone, 0.3 ppm, read-out: Test 2 preventive value, Measured
  pest or weed control at 0.3 ppm: 98%
